We go through 3 molecules from patent US20060094674A1, “Combination of mtor inhibitor and a tyrosine kinase inhibitor for the treatment of neoplasms” (priority 2002, published 2006).

Read-outs that look alike come from different tables or passages of the source.

For data set [1], the system named is Ba/F-FLT3-ITD F691I cells. The settings on record: 48 hours; PKC412 10 nM alone; two-drug combinations at indicated concentrations.
Description: (§3) Cell proliferation was measured by a [^3H]-thymidine incorporation assay (see FIG. 6C).
Data set [2] concerns bone marrow cells transduced with BCR/ABL-expressing retroviruses. Description: BCR/ABL-evoked myeloid colony formation assay. It is filed as cell-based, mice. The note with it: rapamycin 2 nM, Imatinib 0.5 μM, UO126 2 μM alone, or all three combined; 10 days.
Data set [3] concerns BCR/ABL-transformed primary B-lymphoblast cells. The settings on record: 24 hours, Imatinib 1 μM, Rapamycin 10 nM; for % of viable cells in phase: G1 / % of viable cells in phase: G2/M / % of viable cells in phase: S / Total % Apoptotic: UO126 5 μM; for Total % Apoptotic: sub-G1 DNA content.
Description: For cell cycle and apoptosis assays, live cells from randomly growing BCR/ABL-transformed B-lymphoblasts were isolated using Histopaque (Sigma). After washing twice, the cells were resuspended in regular growth medium (RPMI-containing 20% FCS and 50 μM 2-mercaptoethanol), exposed to inhibitors at the indicated concentrations for 24 hours, harvested and fixed in 70% ethanol, for 3 hours at −20 C. Fixed cells were stained with propidium iodide, and cell cycle parameters were analyzed by using FACScan and Modfit LT software.
3 million cells in media as described above and treated with the indicated drugs or left untreated for 24 hours, were fixed, stained with propidium iodide and subject to flow cytometry for cell cycle analysis.
A further data set concerns Ba/F-BCR/ABL T315I cells. Description: [3H]-thymidine proliferation assay, Imatinib-resistant Ba/F-BCR/ABL T315I cells. The settings on record: 48 hours.
Another data set deals with K562 cells. Description: [3H]-thymidine proliferation assay, K562 cells. The note with it: rapamycin alone, 5 nM; 60 hours. In kind it is cell-based, human.
For data set [4], the system named is Erk1/2 kinases. The note with it: 18 hours; indicated concentrations. The procedure: (§1) Cells were lysed in a buffer containing Tris-HCl (50 mM, pH 8.0), NaCl (150 mM), NP40 (1% v/v), NaF (10 mM), 2 mM sodium orthovanadate and a cocktail of protease inhibitors, as described previously (Gu et al., Mol. Cell. Biol. 20:7109 (2000)). Cell lysates containing equivalent amounts of protein ([…]) were loaded and separated by SDS-PAGE. Immunoblotting was performed using phospho-specific antibodies reactive with Thr389 of p70 S6K, Ser65 of 4E-BP1 or Thr202/Tyr204 of p44/42 Erk (Cell Signaling Technology, Beverly, Ma.). Detection was by enhanced chemiluminescence (ECL). To control for equal loading, blots were reprobed with antibodies that detect total Erk2 or p70 S6K (Santa Cruz Biotechnology).
(§2) Cell lysates were prepared and equal amounts (50 μg) of protein were resolved by SDS-PAGE followed by immunoblot analysis with the indicated phospho-specific antibodies. To control for loading, the blots were stripped and reprobed with anti-Erk2 antibodies.

Data set [5] concerns p70 S6K. The note with it: rapamycin 0.5-5 nM; 18 hours. The procedure:
as §1, §2

Data set [6] deals with p70 S6K. As for the experimental part: as §1, §2
Data set [7] relates to 4E-BP1. The settings on record: Imatinib 0.5-4 μM or rapamycin 5 nM alone, or combined. The procedure:
as §1

Data set [8] has as its system Erk1/2 kinases. The note with it: 18 hours; indicated concentrations. As for the experimental part:
as §1, §2
The source holds these as a separate data set.

The subject of data set [9] is 4E-BP1. Description: Immunoblot of 4E-BP1 phosphorylation in Ba/F-FLT3-ITD cells. In kind it is cell-based. As for the experimental part:
as §1
The blots were reprobed for p70 S6 kinase and Erk2, respectively, to ensure equivalent loading.

The subject of data set [10] is PTEN-positive human prostate cancer cells (CWR22). Description: Proliferation (cell number, hemocytometer) of CWR22 cells. In kind it is cell-based. The settings on record: rapamycin at indicated concentrations alone or with Imatinib 2 μg/ml; 7 days. The procedure: PTEN-positive human prostate cancer cells (CWR22) were seeded at 30,000 cells per 6-well cluster (35 mm plate). […] Media was changed every 2 days with fresh drugs. After 7 days, cell number was determined by hemocytometer (see FIG. 9).

Data set [11] has as its system PTEN-negative human prostate cancer cells (LnCaP). Description: Proliferation (cell number, hemocytometer) of LnCaP cells. The note with it: rapamycin at indicated concentrations alone or with Imatinib 2 μg/ml; 7 days. It is filed as cell-based. As for the experimental part: PTEN-negative human prostate cancer cells (LnCaP) were seeded at 30,000 cells per 6-well cluster (35 mm plate). […] Media was changed every 2 days with fresh drugs. After 7 days, cell number was determined by hemocytometer (see FIG. 10).

Data set [12] deals with murine BCR/ABL disease model. Description: Survival in mouse model of CML (BCR/ABL bone marrow transplantation). In kind it is in vivo, BALB/C mice.
Description: BALB/C donor mice were primed with intraperitoneal injection of 5′ fluorouracil (150 mg/kg). After 5 days, bone marrow cells were collected and transduced with MSCV p210 (BCR/ABL)-IRES-GFP viruses by two rounds of spinfection. After second round of transduction, cells were resuspended in Hanks balanced salt solution and injected (1×10^6 cells/0.5 ml) into the lateral tail vein of lethally irradiated (2×450 cGy) female recipient BALB/C mice. […] All animals in the trial received two gavage treatments and one IP treatment per 24 hours. Treatment was started from day 9 after bone marrow transplantation (BMT) and continued until the mice died. The log rank statistics were used to attach a significance level to the difference in the survival curves.
These mice were censored from the statistical analysis of survival. Peripheral blood was collected from the retroorbital cavity using a heparinized glass capillary. Blood smears were stained with Wright and Giemsa. Manual and automated (ADIVA 120 Hematology system, Bayer) total and differential blood cell counts were performed, as well as histopathologic exam of relevant organs (spleen, liver, heart, lungs, intestine, hindlimb bones, and kidneys). […]
Data set [13] has as its system BCR/ABL-transformed primary B lymphoblasts. The settings on record: 24 hours; rapamycin 0.25-10 nM alone; Imatinib 0.25-4 μM alone or in combination with rapamycin 2 nM.
The subject of a further data set is Ba/F-BCR/ABL WT cells. The settings on record: rapamycin 5 nM; 48 hours of exposure.
Data set [14] concerns Ba/F-FLT3-ITD F691I cells.
Description: as §3
For data set [15] the following is noted: achieved in transplant patients; cited from earlier work.

In the case of `CO[C@@H]1[C@H](N(C)C(=O)c2ccccc2)C[C@H]2O[C@]1(C)n1c3ccccc3c3c4c(c5c6ccccc6n2c5c31)C(=O)NC4` [PKC412], the “effect on cell proliferation” value in [1] is listed as “almost no effect”.

Turning to `N#CC(=C(/N)Sc1ccccc1N)/C(C#N)=C(/N)Sc1ccccc1N` [UO126], in [2], the “inhibition of BCR/ABL-evoked myeloid colony formation” value stood at 16%. Further, in data set [3], the “% of viable cells in phase: G1” value is on record as 44.6%, the “% of viable cells in phase: G2/M” value is recorded as 3.8%, the “% of viable cells in phase: S” value is listed as 51.6% and the “Total % Apoptotic” value amounted to 4.6%. Further, the inhibition of proliferation entry in the data set with Ba/F-BCR/ABL T315I cells (UO126 5 μM, Imatinib 0.5 μM, rapamycin 5 nM, alone or in combinations) is reported as “only modest inhibitory effects”.

For the molecule Rapamycin, the “inhibition of [3H]-thymidine incorporation” value with K562 cells is given as about 25%. Besides, the “inhibition of Erk activation” value in the data set on Erk1/2 kinases [4] and in the data set with Erk1/2 kinases [8] was “did not inhibit Erk activation” throughout. For the same molecule, the “inhibition of p70 S6K activation” value in the data set with p70 S6K [5] is on record as “almost completely inhibited activation of p70 S6K”; with p70 S6K [6] (rapamycin 0.5-5 nM, 18 hours) it was “almost completely inhibited activation of p70 S6K”. Moreover, in the data set with p70 S6K [6] (rapamycin 5 nM), the “inhibition of p70 S6K phosphorylation” value is “totally inhibited p70 S6K phosphorylation”. Further, in the data set with 4E-BP1 [7], the “inhibition of 4E-BP1 phosphorylation” value is “partial inhibition of 4E-BP1phosphorylation”. In the data set on 4E-BP1 [9], the “resistance of 4E-BP1 phosphorylation to rapamycin relative to p70 S6K” value is recorded as over 10 fold. Also, the “inhibitory effect on proliferation of prostate cancer cells” value in data set [10] and in data set [11] was “significant inhibitory effect on proliferation” throughout. In addition, the “survival versus double placebo, p (log rank)” value in data set [12] (Rapamycin 7.0 mg/kg/day intraperitoneal or Imatinib 70 mg/kg/day oral gavage, each plus placebo) worked out at 0.04. In data set [12] (Rapamycin 7.0 mg/kg/day intraperitoneal, Imatinib 70 mg/kg/day oral gavage, from day 9 after BMT), the survival result was “survived longer than those treated with double placebo”. Further, the “inhibition of cell proliferation ([3H]-thymidine incorporation)” value in data set [13] is “inhibited the proliferation of these cells at doses significantly below typical serum levels”. Moreover, the inhibition of proliferation in the data set with Ba/F-BCR/ABL WT cells is on record as about 60%; in the data set with Ba/F-BCR/ABL T315I cells (rapamycin 5 nM alone) it was “about 70%”. In addition, the inhibition in data set [14] was 68%. Also, the “% of viable cells in phase: G1” value in data set [3] amounted to 79.9%. In addition, in data set [3], the “% of viable cells in phase: G2/M” value is on record as 1.8%. Moreover, the “% of viable cells in phase: S” value in [3] was determined as 18.3%. The “Total % Apoptotic” value in [3] amounted to 8.6%. The “effect on cell cycle and apoptosis” value in [3] (alone or combined) is recorded as “G1 arrest, but no significant apoptosis”. Moreover, in [15], the typical serum levels is 5 to 15 nM.

By inhibition is commonly meant the share of the control response that was lost under treatment. Low readings indicate little suppression, high ones strong suppression.
